Laboratory results reported in patent US20120165376A1, “STABILIZED MICROBICIDAL COMPOSITION” (priority 2010, published 2012).

Key:
Assay type in all cases: physicochemical
[1] = Storage stability of formulations having 20% DBNPA, 6% BNPD and 1.25% CMI/MI (3:1): oven at 40° C., loss of biocides after 60 days; details: 6% BNPD
Description: These formulations were prepared from salt-free CMI/MI biocide, except as otherwise indicated. They were placed in an oven at 40° C. and analyzed for loss of the biocides after 60 days.

[2] = Storage stability of formulations having 20% DBNPA and 0.25% CMI/MI (3:1): oven at 45° C., loss after 28 days
Description: These formulations were prepared, using salt-free CMI/MI and placed in an oven at 45° C. and analyzed for loss of the biocides after 28 days.

[3] = Storage stability of formulations having 20% DBNPA and 6% BNPD: oven at 45° C., loss after 28 days
Description: These formulations were prepared and placed in an oven at 45° C. and analyzed for loss of the biocides after 28 days.

[4] = Storage stability of formulations having 10-20% DBNPA, without BNPD or CMI/MI: oven at 45° C., loss after 28 days
Description: These were prepared and placed in an oven at 45° C. and analyzed for loss of the biocides after 28 days. […]=diethylene glycol monomethyl ether.

[5] = glycerin 0%, water 10%, TEG-mono-butyl ether 59.5%
[6] = glycerin 0%, water 20%, TEG 49.5%
[7] = glycerin 0%, water 20%, TEG-mono-butyl ether 49.5%
[8] = glycerin 0%, water 30%, TEG 39.5%
[9] = glycerin 0%, water 30%, TEG-mono-butyl ether 39.5%
[10] = glycerin 10%, water 10%, TEG 49.5%
[11] = glycerin 10%, water 20%, TEG-mono-butyl ether 39.5%
[12] = glycerin 10%, water 30%, TEG-mono-butyl ether 29.5%
[13] = glycerin 20%, water 10%, TEG 39.5%
[14] = glycerin 20%, water 20%, TEG 29.5%
[15] = glycerin 0%, water 20%, DPG 54, 20% DBNPA
[16] = glycerin 0%, water 20%, TetEG 54, 20% DBNPA
[17] = glycerin 10%, water 5%, DPG 60, 20% DBNPA
[18] = glycerin 10%, water 5%, TetEG 60, 20% DBNPA
[19] = glycerin 10%, water 10%, DPG 54, 20% DBNPA
[20] = glycerin 10%, water 10%, TetEG 54, 20% DBNPA
[21] = glycerin 20%, water 10%, DPG 44, 20% DBNPA
[22] = glycerin 20%, water 10%, TEG 44, 20% DBNPA
[23] = glycerin 20%, water 10%, TetEG 44, 20% DBNPA
[24] = glycerin 30%, water 5%, DPG 39, 20% DBNPA
[25] = glycerin 30%, water 5%, TetEG 39, 20% DBNPA
[26] = glycerin 30%, water 10%, DPG 34, 20% DBNPA
[27] = glycerin 30%, water 10%, TetEG 34, 20% DBNPA
[28] = glycerin 30%, water […]%, DPG 29, 20% DBNPA, result believed to be erroneous
[29] = glycerin 30%, water […]%, TetEG 29, 20% DBNPA

In the case of `N#CC(Br)(Br)C(N)=O` [DBNPA, 2,2-dibromo-3-nitrilopropionamide], the “DBNPA loss, %” value [1, 5] is reported as 40%, the “DBNPA loss, %” value [1, 6] is reported as 10% and the “DBNPA loss, %” value [1, 7] is reported as 18%. The “DBNPA loss, %” value [1, 8] was 16%, the “DBNPA loss, %” value [1, 9] was 18% and the “DBNPA loss, %” value [1, 10] was 6%. The “DBNPA loss, %” value [1, 11] was 14%, the “DBNPA loss, %” value [1, 12] was 18% and the “DBNPA loss, %” value [1, 13] was 5%. For the same molecule, the “DBNPA loss, %” value [1, 14] was 14%, the “DBNPA loss, %” value ([2]; glycerin 0%, water 20%, DPG 59, 20% DBNPA, 0.25% CMI/MI (3:1)) was 10% and the “DBNPA loss, %” value ([2]; glycerin 0%, water 20%, TetEG 59, 20% DBNPA, 0.25% CMI/MI (3:1)) was 4%. The “DBNPA loss, %” value ([2]; glycerin 10%, water 5%, DPG 64, 20% DBNPA, 0.25% CMI/MI (3:1), result believed to be erroneous) was 27^1%, the “DBNPA loss, %” value ([2]; glycerin 10%, water 5%, TetEG 64, 20% DBNPA, 0.25% CMI/MI (3:1)) was 2.5% and the “DBNPA loss, %” value ([2]; glycerin 10%, water 10%, DPG 59, 20% DBNPA, 0.25% CMI/MI (3:1)) was 7%. For the same molecule, the “DBNPA loss, %” value ([2]; glycerin 10%, water 10%, TetEG 59, 20% DBNPA, 0.25% CMI/MI (3:1)) was 3.5%, the “DBNPA loss, %” value ([2]; glycerin 20%, water 10%, DPG 49, 20% DBNPA, 0.25% CMI/MI (3:1)) was 3.5% and the “DBNPA loss, %” value ([2]; glycerin 20%, water 10%, TEG 49, 20% DBNPA, sample had 1% CMI/MI) was 6%. The “DBNPA loss, %” value ([2]; glycerin 20%, water 10%, TetEG 49, 20% DBNPA, 0.25% CMI/MI (3:1)) was 3.5%, the “DBNPA loss, %” value ([2]; glycerin 30%, water 5%, DPG 44, 20% DBNPA, 0.25% CMI/MI (3:1)) was 6% and the “DBNPA loss, %” value ([2]; glycerin 30%, water 5%, TetEG 44, 20% DBNPA, 0.25% CMI/MI (3:1)) was 6%. For the same molecule, the “DBNPA loss, %” value ([2]; glycerin 30%, water 10%, DPG 39, 20% DBNPA, 0.25% CMI/MI (3:1)) was 4%, the “DBNPA loss, %” value ([2]; glycerin 30%, water 10%, TetEG 39, 20% DBNPA, 0.25% CMI/MI (3:1)) was 2.5% and the “DBNPA loss, %” value ([2]; glycerin 30%, water 20%, DPG 29, 20% DBNPA, 0.25% CMI/MI (3:1)) was 4%. For the same molecule, the “DBNPA loss, %” value ([2]; glycerin 30%, water 20%, TetEG 29, 20% DBNPA, 0.25% CMI/MI (3:1)) was 3.5%, the “DBNPA loss, %” value ([2]; glycerin 30%, water […]%, DPG 34, 20% DBNPA, 0.25% CMI/MI (3:1)) was 3.5% and the “DBNPA loss, %” value ([2]; glycerin 30%, water […]%, TetEG 34, 20% DBNPA, 0.25% CMI/MI (3:1)) was 3%. For the same molecule, the “DBNPA loss, %” value [3, 15] was 3.5%, the “DBNPA loss, %” value [3, 16] was 2% and the “DBNPA loss, %” value [3, 17] was 7%. For the same molecule, the “DBNPA loss, %” value [3, 18] was 5%, the “DBNPA loss, %” value [3, 19] was 6% and the “DBNPA loss, %” value [3, 20] was 7%. The “DBNPA loss, %” value [3, 21] was 3%, the “DBNPA loss, %” value [3, 22] was 7% and the “DBNPA loss, %” value [3, 23] was 7%. The “DBNPA loss, %” value [3, 24] was 2%, the “DBNPA loss, %” value [3, 25] was 2.5% and the “DBNPA loss, %” value [3, 26] was 3%. The “DBNPA loss, %” value [3, 27] was 3%, the “DBNPA loss, %” value [3, 28] was 14^1% and the “DBNPA loss, %” value [3, 29] was 4.5%. For the same molecule, the “DBNPA loss, %” value ([4]; glycerin 30%, water 5%, TEG 45, 20% DBNPA) was 3^ %, the “DBNPA loss, %” value ([4]; glycerin 45%, water 5%, TEG 30, 20% DBNPA) was 3^ % and the “DBNPA loss, %” value ([4]; glycerin 65%, water […]%, DEGMME 10, only 10% DBNPA) was 95^1%. The “DBNPA loss, %” value ([4]; glycerin 65%, water […]%, TEG 10, only 10% DBNPA) was 3^1% and the “DBNPA loss, %” value ([4]; glycerin 65%, water […]%, TetEG 10, only 10% DBNPA) was 95^1%.
With `O=[N+]([O-])C(Br)(CO)CO` [BNPD, 2-bromo-2-nitro-1,3-propanediol] the “BNPD loss, %” value ([1]; glycerin 0%, water 10%, TEG 59.5%) was 3%, the “BNPD loss, %” value [1, 5] was 0% and the “BNPD loss, %” value [1, 6] was 1%. The “BNPD loss, %” value [1, 7] was 0%, the “BNPD loss, %” value [1, 8] was 3% and the “BNPD loss, %” value [1, 9] was 3%. The “BNPD loss, %” value [1, 10] was 3%, the “BNPD loss, %” value ([1]; glycerin 10%, water 10%, TEG-mono-butyl ether 49.5%) was 3% and the “BNPD loss, %” value ([1]; glycerin 10%, water 20%, TEG 39.5%) was 3%. The “BNPD loss, %” value [1, 11] was 3%, the “BNPD loss, %” value [1, 12] was 4% and the “BNPD loss, %” value [1, 13] was 3%. For the same molecule, the “BNPD loss, %” value ([1]; glycerin 20%, water 10%, TEG-mono-butyl ether 39.5%) was 3%, the “BNPD loss, %” value [1, 14] was 4% and the “BNPD loss, %” value [3, 15] was 1.5%. The “BNPD loss, %” value ([3]; glycerin 0%, water 20%, TEG 54, 20% DBNPA) was 7%, the “BNPD loss, %” value [3, 16] was 0% and the “BNPD loss, %” value [3, 17] was 1%. For the same molecule, the “BNPD loss, %” value [3, 18] was 6%, the “BNPD loss, %” value [3, 19] was 0.5% and the “BNPD loss, %” value [3, 20] was 8.5%. For the same molecule, the “BNPD loss, %” value [3, 21] was 1.5%, the “BNPD loss, %” value [3, 22] was 4% and the “BNPD loss, %” value [3, 23] was 3%. For the same molecule, the “BNPD loss, %” value [3, 24] was 1.5%, the “BNPD loss, %” value [3, 25] was 1.5% and the “BNPD loss, %” value [3, 26] was 1%. For the same molecule, the “BNPD loss, %” value [3, 27] was 2%, the “BNPD loss, %” value [3, 28] was 12.5^1% and the “BNPD loss, %” value [3, 29] was 3.5%.
